Data on three compounds can be found in patent US20240327463A1, “ANTIBACTERIAL PRODUCTS” (priority 2017, published 2024).

Values after ≈ are worked out from the molar mass of the structure shown. Bridge positions count the residues as written; N and C are the ends. Square brackets hold non-standard residues; d marks the D form. Peptide text beside a SMILES is read from it. I, II: the chains in the order shown. dNMeF = CN[C@H](Cc1ccccc1)C(=O)O

In one data set the test system is Pseudomonas aeruginosa. Put plainly: Activity against Pseudomonas aeruginosa. The format is cell-based. From the text:
(§1) The inclusion of 3 arginines in the above case likely perturbs the amphiphilic character of the teixobactin, resulting in a decrease in activity. […] Importantly, the hydrophobic-hydrophilic balance of these analogues was similar to natural teixobactin (two cationic charges). […] The minimum bactericidal concentrations (MBC) of teixobactin analogues against S. aureus/MRSA strains (Table 11) has been further determined. […] In view of narrow MIC distribution values and bactericidal properties, attention was focused on Compound 26 and further investigated its biological properties.

The test system of data set [1] is MRSA ATCC 33591.
For data set [2], the system named is S. aureus ATCC 29213.
For a further data set, the system named is VRE 1002. Type of data set: cell-based, Enterococcus faecalis. A digest of the protocol: (§2)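 Values come from three repeat experiments. Growth and compound dilution both used Mueller Hinton broth, with the dilution series extended to well 11 and every incubation held at 37 °C.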
A further data set deals with VRE 1004. Type of data set: cell-based, Enterococcus faecalis. A digest of the protocol: as §2
The subject of a further data set is VRE 1008. Type of data set: cell-based, Enterococcus faecalis. A digest of the protocol: as §2
A further data set deals with VRE 1001. Type of data set: cell-based, Enterococcus faecalis. In outline: as §2
The test system of another data set is MRSA 1003. The format is cell-based, Staphylococcus aureus. A digest of the protocol:
as §2

Data set [3] relates to Staphylococcus saprophyticus ATCC BAA 750. Type of data set: cell-based. The following applies: Staphylococcus saprophyticus ATCC BAA 750; Table 11. In outline:
as §2

The subject of data set [4] is Bacillus Cereus ATCC 11788. Type of data set: cell-based. A digest of the protocol: as §2
Data set [5] relates to Staphylococcus saprophyticus ATCC 49907. The format is cell-based. The following applies: Staphylococcus saprophyticus ATCC 49907; Table 11. In outline: as §2
Data set [6] concerns Bacillus Subtilis ATCC 6633. Type of data set: cell-based. In outline: as §2
The test system of data set [7] is Staphylococcus saprophyticus ATCC 15305. The format is cell-based. Conditions: Staphylococcus saprophyticus ATCC 15305; Table 11. A digest of the protocol: as §2
For data set [8], the system named is Staphylococcus saprophyticus ATCC 49453. Type of data set: cell-based. Conditions: Staphylococcus saprophyticus ATCC 49453; Table 11. A digest of the protocol:
as §2

A short description of another data set: in vitro. Conditions: human. On the procedure: (§3) It was important to evaluate the cytotoxicity of Compound 26 on mammalian cells prior to in vivo studies. The cytotoxicity of Compound 26 in human lung epithelial cell line A549 and primary dermal fibroblasts (hDFs) was determined. Both of these cell culture models are already established for evaluation of cytotoxicity of antimicrobial peptides.
(§4) The stock solution of Compound 26 (500 μg/ml) was prepared fresh by directly dissolving Compound 26 in cell culture medium and used. Cells were treated with dimethyl sulfoxide (DMSO, 0.1% v/v) or nocodazole (5 μg/ml dissolved in DMSO) as controls. At the end of the treatment period, metabolic activities of cells were quantified by MTS-based cell viability assay. […] After 24 h treatment with Compound 26, A549 cells (c) and hDFs (d) were fixed, fluorescently stained with rhodamine-phalloidin (red), alexa fluor 488 conjugated anti-α-tubulin (green) and Hoechst 33342 (blue) and imaged using IN Cell Analyzer 2200 automated microscope. Representative images of cells treated with Compound 26 (62.5 μg/ml for 24 h) or nocodazole (10 μg/ml, toxicity control) are shown in FIG. 2 c,d.

Data set [9] deals with human primary dermal fibroblasts (hDFs). Put plainly: in vitro. On the procedure: as §3, §4
The test system of data set [10] is human lung epithelial cell line A549. Description: in vitro. On the procedure:
as §3, §4

Data set [11] deals with S. aureus ATCC 29213. Put plainly: Mice-eye model of S. aureus keratitis. Type of data set: in vivo. The following applies: for mean corneal thickness: baseline 93.8±2.9 μm. From the text: The in vivo efficacy of Compound 26 in the mice-eye model of S. aureus keratitis was examined. S. aureus is one of the major etiological agents for bacterial keratitis and the toxic secretions produced by this microorganism have been implicated in corneal melt, leading to significant morbidity and vision loss. […] A total of 8 doses were applied and the progression of the infection was monitored by slit lamp examination, anterior segment optical coherent tomography (AS-OCT) and microbiological enumeration of the bacterial bioburden. Mice cornea treated with PBS had severe clinical presentation indicated by chemosis, significant presence of hypopyon like materials and corneal infiltrates (FIG. 4).

The subject of data set [12] is S. aureus ATCC 29213. Description: Time-kill kinetics against S. aureus ATCC 29213. Type of data set: cell-based, Staphylococcus aureus. The following applies: 0.5 μg/ml or 1 μg/ml; at 8 h.
The conditions of data set [13]: rabbit; 50 μl of 0.3% (w/v) topically 4 times/day; fluorescein staining. On the procedure:
The in vivo toxicity of Compound 26 in a rabbit corneal damage model was examined. A 50 μl of 0.3% (w/v) solution was applied topically (4 times/day) to the circularly debrided cornea and reepithelialisation was monitored by fluorescein staining. Vehicle alone served as control.

The test system of a further data set is VRE ATCC 700802. Description: microbe, parasite or virus in culture. In outline:
(§5)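 Twofold dilutions of DMSO-solubilised peptides (from 512 μg/ml) in Mueller Hinton; 24 h incubation, 37° C; visible growth scored.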

Data set [14] deals with Staphylococcus aureus ATCC 29213. Description: microbe, parasite or virus in culture. In outline:
as §5

The next data set concerns MRSA ATCC 700699. Put plainly: microbe, parasite or virus in culture. A digest of the protocol: as §5
A further data set deals with MRSA DM21455 (eye). Description: microbe, parasite or virus in culture. In outline:
as §5

Another data set deals with MRSA DR 42412 (sputum). Description: microbe, parasite or virus in culture. In outline:
as §5

The next data set relates to VRE ATCC 29212. Description: microbe, parasite or virus in culture. Conditions: ATCC 29212. In outline:
as §5

Data set [15] deals with panel of antibiotic-resistant and antibiotic susceptible Gram-positive pathogens. The following applies: average over tested strains. A digest of the protocol: as §5
Data set [16] deals with MRSA ATCC 33591. The following applies: Table 10; MRSA ATCC 33591. A digest of the protocol: as §5
Another data set relates to S. aureus/MRSA strains. Description: Minimum bactericidal concentrations against S. aureus/MRSA strains. Type of data set: cell-based, Staphylococcus aureus. Conditions: tested S. aureus/MRSA strains.
Source text: as §1

A further data set concerns MRSA. The format is cell-based, Staphylococcus aureus. A digest of the protocol: as §2
The next data set concerns A. baumannii. Type of data set: cell-based. A digest of the protocol:
as §2

A further data set concerns E. coli. The format is cell-based, Escherichia coli. On the procedure: Bacteria were grown on Mueller Hinton broth (oxoid). All incubations were at 37° C. Dilutions were carried out using Mueller Hinton. […] This process was repeated up to well 11. […] This was repeated three times. […] Results are tabulated in the Examples.
Another data set deals with M. smegmatis ATCC 607. Put plainly: microbe, parasite or virus in culture. Conditions: Mycolicibacterium smegmatis, ATCC607. A digest of the protocol: as §5
A further data set concerns ATCC 29212. Description: microbe, parasite or virus in culture. Conditions: Enterococcus. A digest of the protocol: as §5

Usually viability stands for a per cent measure of how many cells are alive, often set against a control. Read a low viability as a greater loss of cells. As for `CC[C@@H](C)[C@@H](NC(=O)[C@@H](CCCNC(=N)N)NC(=O)[C@H](CO)NC(=O)[C@@H](NC(=O)[C@@H](Cc1ccccc1)NC)[C@@H](C)CC)C(=O)N[C@H](C(=O)N[C@@H](CO)C(=O)N[C@H]1C(=O)N[C@@H](C)C(=O)N[C@@H](CC(C)C)C(=O)N[C@@H]([C@@H](C)CC)C(=O)O[C@H]1C)[C@@H](C)CC` [Compound 26, D-Arg4-Leu10-teixobactin], in the data set with Pseudomonas aeruginosa, the “activity against Pseudomonas aeruginosa (Gram negative bacteria)” value was “inactive”. Besides, the “calculated frequency of resistance” value with MRSA ATCC 33591 [1] and in the data set on S. aureus ATCC 29213 [2] was < 10^−10 in each case. The “resistant mutants, single step resistance” value in the data set on MRSA ATCC 33591 [1] (5×, 10×, 20×MIC) is recorded as “could not be obtained”; with S. aureus ATCC 29213 [2] (5×, 10×, 20×MIC), “could not be obtained”. The MIC with VRE 1002 was 1 µg/mL (≈ 0.813 µM); with VRE 1004 it was 0.25 µg/mL (≈ 0.203 µM); in the data set on VRE 1008, 0.5 µg/mL (≈ 0.407 µM); against VRE 1001, 0.5 µg/mL (≈ 0.407 µM); against MRSA 1003, 0.5 µg/mL (≈ 0.407 µM); in data set [3] it was below 0.0625 µg/mL. Besides, the MIC in data set [4] was 0.5 µg/mL (≈ 0.407 µM); in [5] it was below 0.0625 µg/mL; in [6], 0.125 µg/mL (≈ 0.102 µM); in [7], below 0.0625 µg/mL; in [8] it was below 0.0625 µg/mL; in the data set on VRE ATCC 700802 (ATCC 700802), 0.5 µg/mL (≈ 0.407 µM). Also, the MIC in data set [14] (SA29213, Table 11) is below 0.0625 µg/mL; in the data set with MRSA ATCC 700699 (ATCC 700699), 0.25 µg/mL (≈ 0.203 µM); against MRSA DM21455 (eye) (DM21455 (eye)) it was 0.0313 µg/mL (≈ 0.0255 µM); against MRSA DR 42412 (sputum) (DR 42412 (sputum)), 0.0313 µg/mL (≈ 0.0255 µM); against VRE ATCC 29212, 0.5 µg/mL (≈ 0.407 µM). Also, the viability at 24 h, 250 µg/mL in the data set “in vitro” (A549 lung epithelial cells) and in “in vitro” (primary dermal fibroblasts (hDFs)) was 80% each time. Further, the “cell morphology, high content images” value is “absence of any cytoskeletal and nuclear disruption” in [9]; “absence of any cytoskeletal and nuclear disruption” in data set [10]. The mean corneal thickness with S. aureus ATCC 29213 [11] (24 h post treatment, 0.3% topical) was 92.3±12.5 μm; in the data set with S. aureus ATCC 29213 [11] (48 h post treatment, 0.3% topical), 121.7±3.2 μm. Moreover, the “cornea with detectable bacterial colonies” value in the data set with S. aureus ATCC 29213 [11] (after 8 dosages) is listed as “Five out of six”. For the same compound, the “mean log10 CFU/tissue” value in the data set with S. aureus ATCC 29213 [11] (corneal tissues harvested after 8 dosages, ± standard error of the mean) amounted to 3.97±0.19 log10 CFU/tissue. In the data set with S. aureus ATCC 29213 [11] (mice, 0.3% topical, 8 doses from 6 h p.i.), the “clinical appearance of infected cornea (slit lamp)” value is “remained clear and no signs of corneal defects”. Moreover, the “decrease in bacterial viability (time-kill)” value with S. aureus ATCC 29213 [12] is reported as “≥log10 decrease in bacterial viability”. The “corneal wound closure / reepithelialisation versus PBS” value in data set [13] is given as “no significant difference in wound closure”. Also, the “average MIC” value in data set [15] amounted to 0.27 µg/mL. Also, the “MIC (MRSA)” value with MRSA ATCC 33591 [16] turned out to be 0.125 µg/mL (≈ 0.102 µM). Further, the “MBC relative to MIC” value against S. aureus/MRSA strains was at most 4 times the MIC.
With `CC[C@@H](C)[C@@H](NC(=O)[C@@H](CCC(N)=O)NC(=O)[C@H](CCCCNC(=O)[C@H](CCCCN)NC(=O)[C@H](CCCCN)NC(=O)[C@H](CCCCN)NC(=O)[C@H](CCCCN)NC(=O)[C@H](CCCCN)NC(=O)[C@@H](N)CCCNC(=N)N)NC(=O)[C@@H](NC(=O)[C@@H](Cc1ccccc1)NC)[C@@H](C)CC)C(=O)N[C@H](C(=O)N[C@@H](CO)C(=O)N[C@H]1C(=O)N[C@@H](C)C(=O)N[C@@H](CC(C)C)C(=O)N[C@@H]([C@@H](C)CC)C(=O)O[C@H]1C)[C@@H](C)CC` [Compound 54, Leu10-Teixobactin-3-(S3K-K5R) conjugate] (I: H-[dNMeF]IK[dQ][dI]IS[dT]ALI / II: H-RKKKKK; amide I:3-II:C; ester I:8-I:C), the “MIC (MRSA)” value against MRSA turned out to be 8 µg/mL (≈ 3.92 µM). In addition, the “MIC A baumannii” value with A. baumannii came to 2 µg/mL (≈ 0.981 µM). Further, the “MIC Ecoli” value in the data set with E. coli stood at 16 µg/mL (≈ 7.84 µM).
With `CN[C@H](CC(C)C)C(=O)N[C@H]1C(=O)N[C@@H](CC(N)=O)C(=O)N[C@H]2C(=O)N[C@H]3C(=O)N[C@H](C(=O)N[C@H](C(=O)O)c4cc(O)cc(O)c4-c4cc3ccc4O)[C@H](O)c3ccc(c(Cl)c3)Oc3cc2cc(c3O[C@@H]2O[C@H](CO)[C@@H](O)[C@H](O)[C@H]2O[C@H]2C[C@](C)(N)[C@H](O)[C@H](C)O2)Oc2ccc(cc2Cl)[C@H]1O` [Vancomycin, reference compound], the MIC with VRE ATCC 700802 (Enterococcus) was above 4 µg/mL; in [14] (Staphylococcus aureus, ATCC29213) it was 4 µg/mL (≈ 2.76 µM); against MRSA ATCC 700699 (Staphylococcus aureus) it was 2 µg/mL (≈ 1.38 µM); against MRSA DM21455 (eye) (Staphylococcus aureus, MRSA), 2 µg/mL (≈ 1.38 µM); in the data set on M. smegmatis ATCC 607, above 64 µg/mL; in the data set on MRSA DR 42412 (sputum) (Staphylococcus aureus, MRSA) it was 2 µg/mL (≈ 1.38 µM). For the same compound, in the data set with ATCC 29212, the MIC was above 4 µg/mL.
